Literature values as cited in US20250241301A1, “COMPOSITIONS AND METHODS FOR INHIBITING PATHOGEN GROWTH ON PLANTS AND IMPROVING CROP SAFETY” (priority 2024, published 2025).

System: potatoes
Conditions: T2H applied alone; cited from earlier work

## CCC/C=C/C=O [T2H, trans-2-hexenal]
  skin pitting/lesion damage to potatoes: skin pitting/lesion damage
